Test results reported in patent US20240116985A1, “STAPLED PEPTIDES AND METHODS THEREOF” (priority 2020, published 2024).
In brackets after ≈: the same amount, converted by molar mass. Read-outs that look alike come from different tables or passages of the source.

Columns and labels:
[1] = molecular target: T1, full-length beta-Catenin (Uniprot ID P35222) (Homo sapiens, UniProt P35222); experiment: Fluorescence polarization IC50 (beta-catenin / 5FAM-TCF4 10-53 competition); type: binding; conditions: fluorescence polarization; read-out: beta-Catenin FP IC50
T1 construct: 10 nM full-length beta-Catenin (Uniprot ID P35222)
T1 sequence (P35222 1-781): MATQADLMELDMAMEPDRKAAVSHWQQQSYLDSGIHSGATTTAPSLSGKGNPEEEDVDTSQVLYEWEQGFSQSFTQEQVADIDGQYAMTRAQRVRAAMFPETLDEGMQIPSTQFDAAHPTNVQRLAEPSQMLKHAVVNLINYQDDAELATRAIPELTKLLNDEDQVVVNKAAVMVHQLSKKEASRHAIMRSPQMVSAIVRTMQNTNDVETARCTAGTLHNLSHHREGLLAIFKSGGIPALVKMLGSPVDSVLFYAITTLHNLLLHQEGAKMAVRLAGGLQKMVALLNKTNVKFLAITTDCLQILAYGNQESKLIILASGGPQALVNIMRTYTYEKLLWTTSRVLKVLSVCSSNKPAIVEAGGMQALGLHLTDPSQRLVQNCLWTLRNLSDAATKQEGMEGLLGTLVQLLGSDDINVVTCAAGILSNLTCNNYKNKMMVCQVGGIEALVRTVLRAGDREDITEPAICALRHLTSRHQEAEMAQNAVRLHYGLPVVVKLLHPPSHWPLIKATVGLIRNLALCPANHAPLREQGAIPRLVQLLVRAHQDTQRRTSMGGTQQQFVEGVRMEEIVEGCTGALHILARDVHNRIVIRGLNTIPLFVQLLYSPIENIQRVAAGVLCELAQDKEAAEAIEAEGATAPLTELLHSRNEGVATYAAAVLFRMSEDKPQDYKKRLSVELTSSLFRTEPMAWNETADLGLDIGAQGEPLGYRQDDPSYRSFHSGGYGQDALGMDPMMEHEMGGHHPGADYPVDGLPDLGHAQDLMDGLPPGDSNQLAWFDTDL

Solubility in PBS = type: physicochemical
Procedure, shortened: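 Solubility is derived from HPLC peak areas: the ratio of the PBS supernatant peak to a 50 μM DMSO peptide peak, times 50 uM.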

[2] = molecular target: T2, beta-catenin/TCF4 engagement (Homo sapiens, UniProt P35222); experiment: Nano-BRET target engagement assay (B-cat-Halo & TCF4-Luc in HEK293 cells); type: cell-based; conditions: absolute IC50; read-out: NanoBRET Abs IC50
T2 construct: expressed in transfected cells; host or cells: HEK293
T2 sequence (P35222 1-781): T1 sequence (P35222 1-781)

Compound | IC50 [1] | Solubility (Solubility in PBS; Solubility (uM)) | IC50 [2] | Solubility (Solubility in PBS)
CC(=O)N1CCC[C@]12CC=CCCCC1(CCCC=CCCCOC(=O)N3CC[C@@](C(=O)N[C@@H](Cc4c(F)c(F)c(F)c(F)c4F)C(=O)N[C@@H](Cc4csc5ccccc45)C(=O)N[C@@H](CCC(N)=O)C(N)=O)(C3)NC(=O)[C@H](CC(C)C)NC(=O)[C@H](Cc3ccccc3)NC(=O)[C@H](C)NC(=O)[C@H](C)NC(=O)[C@H](CC(=O)O)NC(=O)[C@H](CC(=O)O)NC1=O)NC(=O)[C@H](CC(C)(C)C)NC(=O)[C@H](CC(=O)O)NC2=O (stereo partly drawn) [I-1185, Ac-PL3-Asp-Npg-B5-Asp-Asp-Ala-Ala-Phe-Leu-PyrS2-Pff-BztA-Gln-NH2] | 203 nM | 33 µM (≈ 66 µg/mL) | 26900 nM | 
CC(=O)N1CCC[C@]12CC=CCCCC1(CCCC=CCCCOC(=O)N3CC[C@@](C(=O)N[C@@H](Cc4c(F)c(F)c(F)c(F)c4F)C(=O)N[C@@H](Cc4csc5ccccc45)C(=O)N[C@@H](CCC(N)=O)C(N)=O)(C3)NC(=O)[C@H](CC(N)=O)NC(=O)[C@H](Cc3ccccc3)NC(=O)[C@H](C)NC(=O)[C@H](C)NC(=O)[C@H](CC(=O)O)NC(=O)[C@H](CC(=O)O)NC1=O)NC(=O)[C@H](CC(C)(C)C)NC(=O)[C@H](CC(=O)O)NC2=O (stereo partly drawn) [I-1186, Ac-PL3-Asp-Npg-B5-Asp-Asp-Ala-Ala-Phe-Asn-PyrS2-Pff-BztA-Gln-NH2] | 128 nM | 46 µM (≈ 92.1 µg/mL) | 23600 nM | 
CC(=O)N1CCC[C@]12CC=CCCCC1(CCCC=CCCCOC(=O)N3CC[C@@](C(=O)N[C@@H](Cc4c(F)c(F)c(F)c(F)c4F)C(=O)N[C@@H](Cc4csc5ccccc45)C(=O)N[C@@H](CO)C(N)=O)(C3)NC(=O)[C@H]([C@@H](C)O)NC(=O)[C@H](Cc3ccccc3)NC(=O)[C@H](C)NC(=O)[C@H](C)NC(=O)[C@H](CC(=O)O)NC(=O)[C@H](CC(=O)O)NC1=O)NC(=O)[C@H](CC1CCCCC1)NC(=O)[C@H](CC(=O)O)NC2=O (stereo partly drawn) [I-1187, Ac-PL3-Asp-Cha-B5-Asp-Asp-Ala-Ala-Phe-Thr-PyrS2-Pff-BztA-Ser-NH2] | 80.5 nM | 42 µM (≈ 82.9 µg/mL) | 28600 nM | 
CC(=O)N1CCC[C@]12CC=CCCCC1(CCCC=CCCCCCC[C@@](C)(C(=O)N[C@@H](Cc3ccsc3)C(=O)N[C@@H](Cc3csc4ccccc34)C(=O)N[C@@H](CCC(N)=O)C(N)=O)NC(=O)[C@H](CC(C)C)NC(=O)[C@H](Cc3ccccc3)NC(=O)[C@H](C)NC(=O)[C@H](C)NC(=O)[C@H](CC(=O)O)NC(=O)[C@H](CC(=O)O)NC1=O)NC(=O)[C@H](CC(C)(C)C)NC(=O)[C@H](CC(=O)O)NC2=O (stereo partly drawn) [I-1188, Ac-PL3-Asp-Npg-B5-Asp-Asp-Ala-Ala-Phe-Leu-S8-3Thi-BztA-Gln-NH2] | 22.5 nM | 18 µM (≈ 33.7 µg/mL) | 7200 nM | 
CC(=O)N1CCC[C@]12CC=CCCCC1(CCCC=CCCCCCC[C@@](C)(C(=O)N[C@@H](Cc3ccsc3)C(=O)N[C@@H](Cc3csc4ccccc34)C(=O)N[C@@H](Cc3c[nH]cn3)C(N)=O)NC(=O)[C@H](CC(C)C)NC(=O)[C@H](Cc3ccccc3)NC(=O)[C@H](C)NC(=O)[C@H](C)NC(=O)[C@H](CC(=O)O)NC(=O)[C@H](CC(=O)O)NC1=O)NC(=O)[C@H](CC(C)(C)C)NC(=O)[C@H](CC(=O)O)NC2=O (stereo partly drawn) [I-1195, Ac-PL3-Asp-Npg-B5-Asp-Asp-Ala-Ala-Phe-Leu-S8-3Thi-BztA-His-NH2] | 29.5 nM |  | 16200 nM | 10 µM (≈ 18.8 µg/mL)
CC(=O)N1CCC[C@]12CC=CCCCC1(CCCC=CCCCOC(=O)N3CC[C@@](C(=O)N[C@@H](Cc4ccsc4)C(=O)N[C@@H](Cc4csc5ccccc45)C(=O)N[C@@H](CCC(N)=O)C(N)=O)(C3)NC(=O)[C@H](CC(C)C)NC(=O)[C@H](Cc3ccccc3C#N)NC(=O)[C@H](C)NC(=O)[C@H](C)NC(=O)[C@H](CC(=O)O)NC(=O)[C@H](CC(=O)O)NC1=O)NC(=O)[C@H](CC(C)(C)C)NC(=O)[C@H](CC(=O)O)NC2=O (stereo partly drawn) [I-1200, Ac-PL3-Asp-Npg-B5-Asp-Asp-Ala-Ala-2CNF-Leu-PyrS2-3Thi-BztA-Gln-NH2] | 99 nM | 48 µM (≈ 93.2 µg/mL) | > 20000 nM | 
CC(=O)N1CCC[C@]12CC=CCCCC1(CCCC=CCCCOC(=O)N3CC[C@@](C(=O)N[C@@H](Cc4ccsc4)C(=O)N[C@@H](Cc4csc5ccccc45)C(=O)N[C@@H](CCC(N)=O)C(N)=O)(C3)NC(=O)[C@H](CC(C)C)NC(=O)[C@H](Cc3cccc(C#N)c3)NC(=O)[C@H](C)NC(=O)[C@H](C)NC(=O)[C@H](CC(=O)O)NC(=O)[C@H](CC(=O)O)NC1=O)NC(=O)[C@H](CC(C)(C)C)NC(=O)[C@H](CC(=O)O)NC2=O (stereo partly drawn) [I-1201, Ac-PL3-Asp-Npg-B5-Asp-Asp-Ala-Ala-3CNF-Leu-PyrS2-3Thi-BztA-Gln-NH2] | 13 nM | 47 µM (≈ 91.3 µg/mL) | 19600 nM | 
CC(=O)N1CCC[C@]12CC=CCCCC1(CCCC=CCCCOC(=O)N3CC[C@@](C(=O)N[C@@H](Cc4ccsc4)C(=O)N[C@@H](Cc4csc5ccccc45)C(=O)N[C@@H](CCC(N)=O)C(N)=O)(C3)NC(=O)[C@H](CC(C)C)NC(=O)[C@H](Cc3ccc(C#N)cc3)NC(=O)[C@H](C)NC(=O)[C@H](C)NC(=O)[C@H](CC(=O)O)NC(=O)[C@H](CC(=O)O)NC1=O)NC(=O)[C@H](CC(C)(C)C)NC(=O)[C@H](CC(=O)O)NC2=O (stereo partly drawn) [I-1202, Ac-PL3-Asp-Npg-B5-Asp-Asp-Ala-Ala-4CNF-Leu-PyrS2-3Thi-BztA-Gln-NH2] | 16 nM |  | 16300 nM | 50 µM (≈ 97.1 µg/mL)
CC(=O)N1CCC[C@]12CC=CCCCC1(CCCC=CCCCOC(=O)N3CC[C@@](C(=O)N[C@@H](Cc4ccccc4C#N)C(=O)N[C@@H](Cc4csc5ccccc45)C(=O)N[C@@H](CCC(N)=O)C(N)=O)(C3)NC(=O)[C@H](CC(C)C)NC(=O)[C@H](Cc3ccccc3)NC(=O)[C@H](C)NC(=O)[C@H](C)NC(=O)[C@H](CC(=O)O)NC(=O)[C@H](CC(=O)O)NC1=O)NC(=O)[C@H](CC(C)(C)C)NC(=O)[C@H](CC(=O)O)NC2=O (stereo partly drawn) [I-1203, Ac-PL3-Asp-Npg-B5-Asp-Asp-Ala-Ala-Phe-Leu-PyrS2-2CNF-BztA-Gln-NH2] | 16 nM |  | 10000 nM | 50 µM (≈ 96.8 µg/mL)
CC(=O)N1CCC[C@]12CC=CCCCC1(CCCC=CCCCOC(=O)N3CC[C@@](C(=O)N[C@@H](Cc4ccsc4)C(=O)N[C@@H](Cc4csc5ccccc45)C(=O)N[C@@H](CCC(N)=O)C(N)=O)(C3)NC(=O)[C@H](CC(N)=O)NC(=O)[C@H](Cc3ccccc3)NC(=O)[C@H](C)NC(=O)[C@H](C)NC(=O)[C@H](CC(=O)O)NC(=O)[C@H](CC(N)=O)NC1=O)NC(=O)[C@H](CC(C)(C)C)NC(=O)[C@H](CC(=O)O)NC2=O (stereo partly drawn) [I-1206, Ac-PL3-Asp-Npg-B5-Asn-Asp-Ala-Ala-Phe-Asn-PyrS2-3Thi-BztA-Gln-NH2] | 32 nM |  | 27800 nM | 50 µM (≈ 95.9 µg/mL)
CC(=O)N1CCC[C@]12CC=CCCCC1(CCCC=CCCCOC(=O)N3CC[C@@](C(=O)N[C@@H](Cc4ccsc4)C(=O)N[C@@H](Cc4csc5ccccc45)C(=O)N[C@@H](CCC(N)=O)C(N)=O)(C3)NC(=O)[C@H](CC(C)C)NC(=O)[C@H](Cc3ccccc3)NC(=O)[C@H](C)NC(=O)[C@H](C)NC(=O)[C@H](CC(=O)O)NC(=O)[C@H](CC(N)=O)NC1=O)NC(=O)[C@H](CC(C)(C)C)NC(=O)[C@H](CC(=O)O)NC2=O (stereo partly drawn) [I-1207, Ac-PL3-Asp-Npg-B5-Asn-Asp-Ala-Ala-Phe-Leu-PyrS2-3Thi-BztA-Gln-NH2] | 40 nM | 11 µM (≈ 21.1 µg/mL) | 7500 nM | 
COCCOCCC(=O)N1CCC[C@]12CC=CCCCC1(CCCC=CCCCOC(=O)N3CC[C@@](C(=O)N[C@@H](Cc4ccccc4Cl)C(=O)N[C@@H](Cc4csc5ccccc45)C(=O)N[C@@H](C(N)=O)[C@H](C)O)(C3)NC(=O)[C@H](CC(N)=O)NC(=O)[C@H](Cc3ccccc3)NC(=O)[C@H](C)NC(=O)[C@H](C)NC(=O)[C@H](CC(=O)O)NC(=O)[C@H](CC(=O)O)NC1=O)NC(=O)[C@H](CC(C)(C)C)NC(=O)[C@H](CC(=O)O)NC2=O (stereo partly drawn) [I-1253, mPEG2-PL3-Asp-Npg-B5-Asp-Asp-Ala-Ala-Phe-Asn-PyrS2-2C1F-BztA-dThr-NH2] | 14 nM | 42 µM (≈ 84.3 µg/mL) | > 20000 nM | 
COCCOCCC(=O)N1CCC[C@]12CC=CCCCC1(CCCC=CCCCCCC[C@@](C)(C(=O)N[C@@H](Cc3ccccc3Cl)C(=O)N[C@@H](Cc3csc4ccccc34)C(=O)N[C@@H](CCC(N)=O)C(N)=O)NC(=O)[C@H]([C@@H](C)O)NC(=O)[C@H](Cc3ccccc3)NC(=O)[C@H](C)NC(=O)[C@H](C)NC(=O)[C@H](CC(=O)O)NC(=O)[C@H](CC(=O)O)NC1=O)NC(=O)[C@H](CC(C)(C)C)NC(=O)[C@H](CC(=O)O)NC2=O (stereo partly drawn) [I-1255, mPEG2-PL3-Asp-Npg-B5-Asp-Asp-Ala-Ala-Phe-Thr-S8-2C1F-BztA-Gln-NH2] | 32 nM |  | > 20000 nM | 50 µM (≈ 98.9 µg/mL)
